Source: ChEMBL document CHEMBL5108066, “Structure-Guided Discovery of Potent Antifungals that Prevent Ras Signaling by Inhibiting Protein Farnesyltransferase” (J Med Chem, 2022)
Values after ≈ are worked out from the molar mass of the structure shown. Active and inactive are the calls of the source. No cut-off for these calls is given here.

Tests used:
Cryptococcus neoformans [1] = assay: Antifungal activity against Cryptococcus neoformans H99 assessed as decrease in cell viability by measuring metabolic activity incubated for 72 hrs by alamar blue staining based broth dilution method; assay type: functional
[2] = Inhibition of Cryptococcus neoformans farnesyltransferase assessed as inhibition of farnesylation of dansyl-GCVVM peptide using fluorescent peptide dansyl-GCVVM and 1uM farnesyl diphosphate as substrate by fluorescence assay
[3] = Inhibition of rat farnesyltransferase assessed as inhibition of farnesylation of dansyl-GCVVM peptide using fluorescent peptide dansyl-GCVVM and 1uM farnesyl diphosphate as substrate by fluorescence assay
[4] = Cytotoxicity against mouse J774.A1 cells assessed as inhibition of cell viability measured at 24 hrs by AlamarBlue staining based cell viability assay; assay type: toxicity; details: read-out: MIC
Cryptococcus neoformans [5] = assay: Uncompetitive type inhibition of Cryptococcus neoformans farnesyltransferase assessed as inhibition constant using farnesyl diphosphate and fluorescent peptide dansyl-GCVVM as substrate by steady-state kinetic analysis
Cryptococcus neoformans [6] = assay: Uncompetitive type inhibition of Cryptococcus neoformans farnesyltransferase assessed as inhibition constant using FPP in presence of 10 mM phosphate and fluorescent peptide dansyl-GCVVM as substrate by steady-state kinetic analysis
[7] = tested on: Schizosaccharomyces pombe; assay: Antifungal activity against Schizosaccharomyces pombe efflux-defective strain MJ-1682 assessed as inhibition of fungal growth by broth microdilution method; assay type: functional
Cryptococcus neoformans [8] = assay: Fungicidal activity against Cryptococcus neoformans H99 assessed as reduction in colonies incubated for 48 hrs by disk diffusion method; assay type: functional, organism-based
Cryptococcus neoformans [9] = assay: Inhibition of biofilm formation in Cryptococcus neoformans H99 incubated for 3 days by alamar blue staining based microtiter plate reader assay; assay type: functional; details: H99, 72 h, time 3 day

Row | SMILES | MIC (Cryptococcus neoformans [1]) [µM] | IC50 [2] [nM] | also measured
1 | CCCC[C@H]1CN(c2cccc(OC(F)(F)F)c2)C(=O)CN1Cc1cncn1Cc1ccc(Cl)cc1 | 6 (≈ 3.13 µg/mL) | 260 | –
2 | CCCC[C@H]1CN(c2cccc(OC(F)(F)F)c2)C(=O)CN1Cc1cncn1Cc1ccc(C(F)(F)F)cc1 | 6 (≈ 3.33 µg/mL) | 280 | –
3 | CCCC[C@H]1CN(c2ccccc2)C(=O)CN1Cc1cncn1Cc1ccc(Br)cc1 | 50 (≈ 24.1 µg/mL) | 920 | –
4 | N#Cc1ccc(Cn2cncc2CN2CCN(c3cccc(OC(F)(F)F)c3)C(=O)C2)cc1 | 50 (≈ 22.8 µg/mL) | 2700 | –
5 | CCCC[C@H]1CN(c2cccc(OC(F)(F)F)c2)C(=O)CN1Cc1cncn1Cc1ccc(F)cc1 | 12 (≈ 6.05 µg/mL) | 710 | –
6 | CCCC[C@H]1CN(c2cccc(OC(F)(F)F)c2)C(=O)CN1Cc1cncn1Cc1ccccc1 | 25 (≈ 12.2 µg/mL) | 1900 | –
7 | CCC[C@H]1CN(c2cccc(OC(F)(F)F)c2)C(=O)CN1Cc1cncn1Cc1ccc(Br)cc1 | 6 (≈ 3.31 µg/mL) | 1100 | –
8 | CCCC[C@H]1CN(c2cccc(OC(F)(F)F)c2)C(=O)CN1Cc1cncn1Cc1ccc(C#N)c(Oc2ccccc2)c1 | 50 (≈ 30.2 µg/mL) | 150 | –
9 | CCCC[C@H]1CN(c2cccc(OC(F)(F)F)c2)C(=O)CN1Cc1cncn1Cc1ccc(C#N)cc1 | 12 (≈ 6.14 µg/mL) | 340 | –
10 | CCCCC[C@H]1CN(c2cccc(OC(F)(F)F)c2)C(=O)CN1Cc1cncn1Cc1ccc(Br)cc1 | 3 (≈ 1.74 µg/mL) | 160 | –
11 | CCCC[C@H]1CN(c2cccc(Cl)c2)C(=O)CN1Cc1cncn1Cc1ccc(C#N)cc1 | 50 (≈ 23.1 µg/mL) | 100 | –
12 | CCCC[C@H]1CN(c2cccc(OC(F)(F)F)c2)C(=O)CN1Cc1cncn1Cc1ccc(F)c(C#N)c1 | 50 (≈ 26.5 µg/mL) | 180 | –
13 | N#Cc1cc(Cn2cncc2CN2CCN(c3cccc(OC(F)(F)F)c3)C(=O)C2)ccc1Oc1ccccc1 | 50 (≈ 27.4 µg/mL) | 320 | –
14 | N#Cc1ccc(Cn2cncc2CN2CCN(c3cccc(OC(F)(F)F)c3)C(=O)C2)cc1F | 50 (≈ 23.7 µg/mL) | 120 | –
15 | N#Cc1cc(Cn2cncc2CN2CCN(c3cccc(OC(F)(F)F)c3)C(=O)C2)ccc1F | 50 (≈ 23.7 µg/mL) | 550 | –
16 | N#Cc1ccc(Cn2cncc2CN2CCN(c3cccc(Cl)c3)C(=O)C2)cc1 [L-778123 FREE BASE] | 100 (≈ 40.6 µg/mL) | – | IC50 [3]: 60 nM
17 | CCCC[C@H]1CN(c2cccc(OC(F)(F)F)c2)C(=O)CN1Cc1cncn1Cc1ccc(Br)cc1 | 3 (≈ 1.7 µg/mL) | 190 | MCC at 24 h [4]: 300 µM; K (Cryptococcus neoformans [5]): 750 nM; K (Cryptococcus neoformans [6]): 500 nM; MIC [7]: 1.5 µM (≈ 0.848 µg/mL); IC50 [3]: 2 nM; Activity (Cryptococcus neoformans [8]): Active; MIC (Cryptococcus neoformans [9]): 12.5 µM (≈ 7.07 µg/mL)
18 | CCCC[C@H]1CN(c2cccc(OC(F)(F)F)c2)C(=O)CN1Cc1cncn1Cc1cccc(C#N)c1 | 50 (≈ 25.6 µg/mL) | 740 | –
19 | N#Cc1ccc(Cn2cncc2CN2CCN(c3cccc(OC(F)(F)F)c3)C(=O)C2)cc1Oc1ccccc1 | 50 (≈ 27.4 µg/mL) | 2600 | –
20 | CCCC[C@H]1CN(c2cccc(C)c2C)C(=O)CN1Cc1cncn1Cc1ccc(C#N)cc1 | 50 (≈ 22.8 µg/mL) | 2200 | –
21 | CCCC[C@H]1CN(c2cccc(OC(F)(F)F)c2)C(=O)CN1Cc1cncn1Cc1ccc(Oc2ccccc2)c(C#N)c1 | 50 (≈ 30.2 µg/mL) | 210 | –
22 | CCCC[C@H]1CN(c2cccc(Cl)c2)C(=O)CN1Cc1cncn1Cc1ccc(Cl)cc1 | 25 (≈ 11.8 µg/mL) | 1600 | –
23 | CCCC[C@H]1CN(c2cccc(OC(F)(F)F)c2)C(=O)CN1Cc1cncn1Cc1ccc(C#N)c(F)c1 | 50 (≈ 26.5 µg/mL) | 40 | K (Cryptococcus neoformans [5]): 4.9 nM; K (Cryptococcus neoformans [6]): 4.2 nM
24 | CCCC[C@H]1CN(c2cccc(Cl)c2)C(=O)CN1Cc1cncn1Cc1ccc(Br)cc1 | 12 (≈ 6.19 µg/mL) | 1100 | –
